Key:
Assay in all cases: KINOMEscan competition binding
Conditions in all cases: compound 10.0 µM
AAK1 (human) = AAK1 (human) (UniProt Q2M2I8)
ANKK1 (human) = ANKK1 (human) (UniProt Q8NFD2)
AURKA (human) = AURKA (human) (UniProt O14965)
AURKB (human) = AURKB (human) (UniProt Q96GD4)
AURKC (human) = AURKC (human) (UniProt Q9UQB9)
CDK18 (human) = CDK18 (human) (UniProt Q07002)
CSF1R (human) = CSF1R (human) (UniProt P07333)
CSNK2A2 (human) = CSNK2A2 (human) (UniProt P19784)
CaMK1 (human) = CaMK1 (human) (UniProt Q14012)
[1] = tested on: EGFR (human), P00533 [L858R]
EPHA5 (human) = EPHA5 (human) (UniProt P54756)
[2] = tested on: FLT3 (human), P36888 [D835Y]
GSK3B (human) = GSK3B (human) (UniProt P49841)
HCK (human) = HCK (human) (UniProt P08631)
[3] = biological target: JAK2 JH1 catalytic (human) (UniProt O60674)
Chain of JAK2 JH1 catalytic (human) (O60674 whole entry, looked up): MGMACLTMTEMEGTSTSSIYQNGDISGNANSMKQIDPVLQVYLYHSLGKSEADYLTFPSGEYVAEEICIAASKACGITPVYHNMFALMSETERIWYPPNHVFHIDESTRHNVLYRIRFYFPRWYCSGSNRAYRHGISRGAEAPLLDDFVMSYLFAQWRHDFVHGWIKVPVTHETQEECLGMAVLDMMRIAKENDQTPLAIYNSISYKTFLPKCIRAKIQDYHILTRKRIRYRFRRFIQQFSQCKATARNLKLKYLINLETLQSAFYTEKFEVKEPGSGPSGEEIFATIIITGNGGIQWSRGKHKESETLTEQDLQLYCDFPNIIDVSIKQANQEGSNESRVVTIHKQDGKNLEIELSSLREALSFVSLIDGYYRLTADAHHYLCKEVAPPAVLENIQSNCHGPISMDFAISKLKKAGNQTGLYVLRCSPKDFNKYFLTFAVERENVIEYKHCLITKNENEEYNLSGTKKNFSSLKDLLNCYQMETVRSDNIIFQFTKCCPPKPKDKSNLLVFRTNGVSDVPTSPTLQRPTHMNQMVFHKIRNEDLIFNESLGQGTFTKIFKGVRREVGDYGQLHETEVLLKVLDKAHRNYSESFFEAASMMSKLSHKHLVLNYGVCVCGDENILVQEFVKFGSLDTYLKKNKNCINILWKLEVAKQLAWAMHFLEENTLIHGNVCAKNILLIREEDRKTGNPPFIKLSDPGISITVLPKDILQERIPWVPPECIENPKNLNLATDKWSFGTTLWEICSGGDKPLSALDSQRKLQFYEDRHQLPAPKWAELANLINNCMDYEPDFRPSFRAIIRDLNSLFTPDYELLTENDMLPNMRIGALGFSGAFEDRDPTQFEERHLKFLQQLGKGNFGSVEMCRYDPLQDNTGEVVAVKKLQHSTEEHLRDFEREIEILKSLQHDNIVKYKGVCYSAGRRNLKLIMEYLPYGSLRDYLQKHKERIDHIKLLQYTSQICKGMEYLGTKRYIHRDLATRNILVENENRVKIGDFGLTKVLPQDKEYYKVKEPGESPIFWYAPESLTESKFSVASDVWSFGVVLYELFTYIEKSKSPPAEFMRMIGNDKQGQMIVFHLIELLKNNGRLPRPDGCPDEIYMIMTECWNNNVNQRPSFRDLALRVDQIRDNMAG

MAP3K12 (human) = MAP3K12 (human) (UniProt Q12852)
MAPK10 (human) = MAPK10 (human) (UniProt P53779)
Chain of MAPK10 (human) (P53779 whole entry, looked up): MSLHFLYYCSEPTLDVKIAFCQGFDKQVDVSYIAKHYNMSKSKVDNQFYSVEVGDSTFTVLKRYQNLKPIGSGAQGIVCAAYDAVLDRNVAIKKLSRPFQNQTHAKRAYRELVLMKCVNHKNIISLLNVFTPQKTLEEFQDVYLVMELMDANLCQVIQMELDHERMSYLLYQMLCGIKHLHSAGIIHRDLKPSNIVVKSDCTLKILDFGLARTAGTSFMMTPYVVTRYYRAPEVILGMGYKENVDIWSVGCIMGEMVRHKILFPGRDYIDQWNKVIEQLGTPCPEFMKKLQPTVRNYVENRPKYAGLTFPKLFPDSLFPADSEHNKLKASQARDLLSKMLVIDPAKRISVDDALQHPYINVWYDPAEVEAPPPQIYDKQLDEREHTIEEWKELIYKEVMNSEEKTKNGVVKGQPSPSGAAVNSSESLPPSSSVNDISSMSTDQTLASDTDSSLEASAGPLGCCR

MAPK11 (human) = MAPK11 (human) (UniProt Q15759)
MARK4 (human) = MARK4 (human) (UniProt Q96L34)
MINK1 (human) = MINK1 (human) (UniProt Q8N4C8)
MKNK2 (human) = MKNK2 (human) (UniProt Q9HBH9)
NEK1 (human) = NEK1 (human) (UniProt Q96PY6)
PDGFRA (human) = PDGFRA (human) (UniProt P16234)
PKN2 (human) = PKN2 (human) (UniProt Q16513)
Chain of PKN2 (human) (Q16513 whole entry, looked up): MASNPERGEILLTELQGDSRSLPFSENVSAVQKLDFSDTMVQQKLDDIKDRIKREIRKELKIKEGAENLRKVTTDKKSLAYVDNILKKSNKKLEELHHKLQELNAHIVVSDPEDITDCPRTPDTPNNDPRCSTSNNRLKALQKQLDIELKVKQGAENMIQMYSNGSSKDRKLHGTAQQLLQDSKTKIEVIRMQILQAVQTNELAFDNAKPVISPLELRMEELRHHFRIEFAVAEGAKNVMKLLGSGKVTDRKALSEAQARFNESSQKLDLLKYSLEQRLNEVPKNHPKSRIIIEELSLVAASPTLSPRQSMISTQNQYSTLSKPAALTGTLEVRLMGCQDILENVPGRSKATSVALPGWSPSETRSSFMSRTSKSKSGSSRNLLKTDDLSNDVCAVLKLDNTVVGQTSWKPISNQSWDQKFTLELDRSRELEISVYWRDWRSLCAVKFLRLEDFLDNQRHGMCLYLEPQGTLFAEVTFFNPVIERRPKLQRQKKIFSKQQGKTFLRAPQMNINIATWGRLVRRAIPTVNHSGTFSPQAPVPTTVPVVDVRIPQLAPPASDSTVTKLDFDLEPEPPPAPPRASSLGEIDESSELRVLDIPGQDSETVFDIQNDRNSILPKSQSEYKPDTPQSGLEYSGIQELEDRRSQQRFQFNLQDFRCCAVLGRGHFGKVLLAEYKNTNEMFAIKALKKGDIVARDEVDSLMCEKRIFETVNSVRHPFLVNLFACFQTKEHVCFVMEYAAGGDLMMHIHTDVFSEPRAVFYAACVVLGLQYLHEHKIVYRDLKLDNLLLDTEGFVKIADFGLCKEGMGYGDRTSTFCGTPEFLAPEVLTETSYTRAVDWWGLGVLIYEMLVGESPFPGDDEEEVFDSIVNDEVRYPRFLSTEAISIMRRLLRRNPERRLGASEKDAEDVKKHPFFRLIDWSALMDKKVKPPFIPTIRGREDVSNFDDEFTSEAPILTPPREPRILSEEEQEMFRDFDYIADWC

PRKAA1 (human) = PRKAA1 (human) (UniProt Q13131)
PRKD2 (human) = PRKD2 (human) (UniProt Q9BZL6)
RIOK1 (human) = RIOK1 (human) (UniProt Q9BRS2)
RPS6KA1 KD2 (human) = RPS6KA1 KD2 (human) (UniProt Q15418)
RPS6KA4 KD2 (human) = RPS6KA4 KD2 (human) (UniProt O75676)
SRPK1 (human) = SRPK1 (human) (UniProt Q96SB4)
STK16 (human) = STK16 (human) (UniProt O75716)
STK32C (human) = STK32C (human) (UniProt Q86UX6)
STK33 (human) = STK33 (human) (UniProt Q9BYT3)
STK35 (human) = STK35 (human) (UniProt Q8TDR2)
TESK1 (human) = TESK1 (human) (UniProt Q15569)
Chain of TESK1 (human) (Q15569 whole entry, looked up): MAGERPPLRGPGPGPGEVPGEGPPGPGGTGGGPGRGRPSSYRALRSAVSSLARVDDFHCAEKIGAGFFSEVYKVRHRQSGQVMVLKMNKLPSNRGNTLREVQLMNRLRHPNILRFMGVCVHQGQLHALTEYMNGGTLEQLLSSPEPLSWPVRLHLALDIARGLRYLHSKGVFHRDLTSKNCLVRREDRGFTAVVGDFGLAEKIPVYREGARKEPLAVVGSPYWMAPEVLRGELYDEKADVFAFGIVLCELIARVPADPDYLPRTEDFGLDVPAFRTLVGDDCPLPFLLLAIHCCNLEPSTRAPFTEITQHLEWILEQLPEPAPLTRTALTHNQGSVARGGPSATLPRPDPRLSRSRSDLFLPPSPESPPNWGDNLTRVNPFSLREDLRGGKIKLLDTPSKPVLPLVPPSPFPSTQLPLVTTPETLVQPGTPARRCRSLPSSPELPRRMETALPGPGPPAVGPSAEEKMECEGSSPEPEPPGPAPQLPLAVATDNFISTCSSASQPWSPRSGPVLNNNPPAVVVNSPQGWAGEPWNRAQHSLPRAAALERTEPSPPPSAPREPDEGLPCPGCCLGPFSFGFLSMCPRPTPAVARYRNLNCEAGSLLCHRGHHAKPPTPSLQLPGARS

Chain of ANKK1 (human) (Q8NFD2 whole entry, looked up): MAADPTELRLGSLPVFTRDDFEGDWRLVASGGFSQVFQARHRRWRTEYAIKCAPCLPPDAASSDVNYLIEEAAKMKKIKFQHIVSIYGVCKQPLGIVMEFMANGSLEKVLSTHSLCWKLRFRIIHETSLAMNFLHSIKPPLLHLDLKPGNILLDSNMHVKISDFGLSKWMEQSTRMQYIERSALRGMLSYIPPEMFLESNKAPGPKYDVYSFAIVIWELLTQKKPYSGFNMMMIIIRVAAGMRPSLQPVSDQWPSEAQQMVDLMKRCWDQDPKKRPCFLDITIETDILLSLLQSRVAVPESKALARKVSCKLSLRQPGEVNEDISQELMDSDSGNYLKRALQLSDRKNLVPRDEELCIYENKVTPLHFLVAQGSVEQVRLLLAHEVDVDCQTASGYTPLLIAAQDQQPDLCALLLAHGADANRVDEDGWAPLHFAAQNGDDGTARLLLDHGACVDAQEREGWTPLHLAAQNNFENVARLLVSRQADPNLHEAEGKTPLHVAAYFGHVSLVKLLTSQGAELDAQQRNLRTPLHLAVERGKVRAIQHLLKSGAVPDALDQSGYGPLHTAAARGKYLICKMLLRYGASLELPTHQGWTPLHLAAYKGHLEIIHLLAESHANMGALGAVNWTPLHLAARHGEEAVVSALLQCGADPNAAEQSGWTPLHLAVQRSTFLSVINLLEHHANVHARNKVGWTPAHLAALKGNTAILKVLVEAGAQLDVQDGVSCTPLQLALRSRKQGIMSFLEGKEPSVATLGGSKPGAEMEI
Chain of CSF1R (human) (P07333 whole entry, looked up): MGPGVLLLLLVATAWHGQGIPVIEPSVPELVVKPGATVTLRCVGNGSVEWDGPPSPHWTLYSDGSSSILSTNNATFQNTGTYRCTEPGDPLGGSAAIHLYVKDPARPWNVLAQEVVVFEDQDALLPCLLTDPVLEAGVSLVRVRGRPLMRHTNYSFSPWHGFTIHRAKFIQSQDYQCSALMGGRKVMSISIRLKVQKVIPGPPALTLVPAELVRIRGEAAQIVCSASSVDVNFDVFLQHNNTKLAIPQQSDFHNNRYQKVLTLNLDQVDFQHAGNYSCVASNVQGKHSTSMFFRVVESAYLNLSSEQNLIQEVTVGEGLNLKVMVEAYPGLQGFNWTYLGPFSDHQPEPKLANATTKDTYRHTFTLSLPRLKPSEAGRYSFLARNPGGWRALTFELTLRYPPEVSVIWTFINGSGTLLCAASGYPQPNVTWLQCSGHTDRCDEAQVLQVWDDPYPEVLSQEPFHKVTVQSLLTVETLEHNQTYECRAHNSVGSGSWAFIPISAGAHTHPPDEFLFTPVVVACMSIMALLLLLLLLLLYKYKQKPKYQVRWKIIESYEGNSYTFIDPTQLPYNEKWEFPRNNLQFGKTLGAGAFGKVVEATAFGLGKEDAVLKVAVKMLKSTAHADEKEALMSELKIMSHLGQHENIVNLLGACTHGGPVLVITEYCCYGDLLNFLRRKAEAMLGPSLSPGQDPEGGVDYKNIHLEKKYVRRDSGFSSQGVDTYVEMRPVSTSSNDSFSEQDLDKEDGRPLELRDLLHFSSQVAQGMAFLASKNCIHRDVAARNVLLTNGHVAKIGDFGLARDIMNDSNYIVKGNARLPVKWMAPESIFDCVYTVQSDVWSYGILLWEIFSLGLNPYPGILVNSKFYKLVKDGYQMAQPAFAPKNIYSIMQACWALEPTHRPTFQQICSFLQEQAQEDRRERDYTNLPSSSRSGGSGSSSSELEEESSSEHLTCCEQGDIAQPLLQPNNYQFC

| SMILES | kinase still bound, per cent of control (AAK1 (human)) [%] | kinase still bound, per cent of control (ANKK1 (human)) [%] | kinase still bound, per cent of control (AURKA (human)) [%] | kinase still bound, per cent of control (AURKB (human)) [%] | kinase still bound, per cent of control (AURKC (human)) [%] | kinase still bound, per cent of control (CDK18 (human)) [%] | kinase still bound, per cent of control (CSF1R (human)) [%] | kinase still bound, per cent of control (CSNK2A2 (human)) [%] | kinase still bound, per cent of control (CaMK1 (human)) [%] | kinase still bound, per cent of control [1] [%] | kinase still bound, per cent of control (EPHA5 (human)) [%] | kinase still bound, per cent of control [2] [%] | kinase still bound, per cent of control (GSK3B (human)) [%] | kinase still bound, per cent of control (HCK (human)) [%] | kinase still bound, per cent of control [3] [%] | kinase still bound, per cent of control (MAP3K12 (human)) [%] | kinase still bound, per cent of control (MAPK10 (human)) [%] | kinase still bound, per cent of control (MAPK11 (human)) [%] | kinase still bound, per cent of control (MARK4 (human)) [%] | kinase still bound, per cent of control (MKNK2 (human)) [%] | further results |
| --- | --- | --- | --- | --- | --- | --- | --- | --- | --- | --- | --- | --- | --- | --- | --- | --- | --- | --- | --- | --- | --- |
| COc1cc(N2CCC(C(N)=O)CC2)ccc1Nc1nc(N)c(Cl)c(Nc2ccccc2S(=O)(=O)C(C)C)n1 | 100 | 100 | 100 | 100 | 100 | 100 | 100 | 100 | 100 | 0.3 | 100 | 5.2 | 100 | 24 | 100 | 100 | 28 | 100 | 100 | 14 | kinase still bound, per cent of control (MINK1 (human)): 100%; kinase still bound, per cent of control (NEK1 (human)): 100%; kinase still bound, per cent of control (PDGFRA (human)): 100%; kinase still bound, per cent of control (PKN2 (human)): 100%; kinase still bound, per cent of control (PRKAA1 (human)): 100%; kinase still bound, per cent of control (PRKD2 (human)): 100%; kinase still bound, per cent of control (RIOK1 (human)): 100%; kinase still bound, per cent of control (RPS6KA1 KD2 (human)): 30%; kinase still bound, per cent of control (RPS6KA4 KD2 (human)): 100%; kinase still bound, per cent of control (SRPK1 (human)): 100%; kinase still bound, per cent of control (STK16 (human)): 100%; kinase still bound, per cent of control (STK32C (human)): 33%; kinase still bound, per cent of control (STK33 (human)): 4.5%; kinase still bound, per cent of control (STK35 (human)): 100%; kinase still bound, per cent of control (TESK1 (human)): 100% |
| COc1ccc(N(C(=O)Oc2cc(C(=O)Nc3cccc(C(F)(F)F)c3)ccc2C)c2ccnc(Nc3ccc(N4CCN(C)CC4)cc3)n2)c(OC)c1 | 100 | 100 | 100 | 100 | 100 | 100 | 0.35 | 100 | 100 | 2.4 | 0.85 | 100 | 100 | 0.2 | 2.3 | 100 | 100 | 1.9 | 100 | 100 | kinase still bound, per cent of control (NEK1 (human)): 100%; kinase still bound, per cent of control (PDGFRA (human)): 8.6%; kinase still bound, per cent of control (PKN2 (human)): 100%; kinase still bound, per cent of control (PRKAA1 (human)): 1.6%; kinase still bound, per cent of control (PRKD2 (human)): 100%; kinase still bound, per cent of control (RIOK1 (human)): 100%; kinase still bound, per cent of control (RPS6KA1 KD2 (human)): 100%; kinase still bound, per cent of control (RPS6KA4 KD2 (human)): 100%; kinase still bound, per cent of control (SRPK1 (human)): 100%; kinase still bound, per cent of control (STK16 (human)): 100%; kinase still bound, per cent of control (STK32C (human)): 100%; kinase still bound, per cent of control (STK33 (human)): 100%; kinase still bound, per cent of control (TESK1 (human)): 3.8% |
| COc1cc(C)c(Sc2cnc(NC(=O)c3ccc(CNC(C)C(C)C)cc3)s2)cc1C(=O)N1CCN(C(C)=O)CC1 (stereo not drawn) | 100 | 100 | 100 | 100 | 100 | 100 | 100 | 100 | 100 | 100 | 100 | 26 | 100 | 100 | 100 | 30 | 100 | 100 | 100 | 100 | kinase still bound, per cent of control (MINK1 (human)): 100%; kinase still bound, per cent of control (NEK1 (human)): 100%; kinase still bound, per cent of control (PDGFRA (human)): 100%; kinase still bound, per cent of control (PKN2 (human)): 100%; kinase still bound, per cent of control (PRKAA1 (human)): 100%; kinase still bound, per cent of control (PRKD2 (human)): 100%; kinase still bound, per cent of control (RIOK1 (human)): 100%; kinase still bound, per cent of control (RPS6KA1 KD2 (human)): 100%; kinase still bound, per cent of control (RPS6KA4 KD2 (human)): 100%; kinase still bound, per cent of control (SRPK1 (human)): 100%; kinase still bound, per cent of control (STK16 (human)): 100%; kinase still bound, per cent of control (STK32C (human)): 100%; kinase still bound, per cent of control (STK33 (human)): 7%; kinase still bound, per cent of control (STK35 (human)): 100%; kinase still bound, per cent of control (TESK1 (human)): 100% |
